Data on 13 compounds can be found in ChEMBL document CHEMBL5729324, “Aromatic heterocyclic substituted olefin compound, preparation method for same, pharmaceutical composition of same, and applications thereof” (2022).

The assay concerns the target T1, TGF-beta receptor type-1 (Homo sapiens, UniProt P36897).
T1 sequence (P36897 whole entry): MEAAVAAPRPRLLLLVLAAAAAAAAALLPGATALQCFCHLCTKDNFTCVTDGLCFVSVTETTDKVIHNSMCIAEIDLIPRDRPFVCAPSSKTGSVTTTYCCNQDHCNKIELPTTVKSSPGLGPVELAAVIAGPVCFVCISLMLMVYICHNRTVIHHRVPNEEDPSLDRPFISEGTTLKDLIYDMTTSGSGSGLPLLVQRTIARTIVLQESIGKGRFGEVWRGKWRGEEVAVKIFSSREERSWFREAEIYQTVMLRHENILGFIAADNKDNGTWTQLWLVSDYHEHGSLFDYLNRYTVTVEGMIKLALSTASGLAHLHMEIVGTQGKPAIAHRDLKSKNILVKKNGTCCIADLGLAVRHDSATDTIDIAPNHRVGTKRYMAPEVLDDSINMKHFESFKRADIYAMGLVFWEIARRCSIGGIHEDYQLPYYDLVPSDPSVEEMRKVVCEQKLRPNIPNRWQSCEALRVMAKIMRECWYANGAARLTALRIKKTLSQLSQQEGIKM
Briefly: Enzyme Activity Inhibition: 1. Preparation of a 1× kinase buffer: 40 mM Tris (pH 7.5), 20 mM MgCl2, 0.10% BSA, 1 mM DTT.2. Compound preparation: The final detection concentration of the compound was 10 μM, which was prepared to a 100-fold concentration, i.e., 1 mM. 100 μL of the 100-fold compound was added in the second well of the 384-well plate, and 60 μL of 100% DMSO was added to the other wells. […] 50 nL of the compound was transferred to the reaction plate with echo.3. Kinase reaction: The kinase was added to a 1× kinase buffer to form a 2× enzyme solution. […] The polypeptide TGFbR1 (purchased from Signal Chem, catalog number T36-58) and ATP were added to a 1× kinase buffer to form a 2× substrate solution. The final concentration of the substrate solution was peptide TGFbR1 0.1 mg/mL, ATP 7 μM. 2.5 μL of the 2× enzyme solution was added to the 384-well reaction plate (there was already 50 nL of 100% DMSO dissolved compound), and a 1× kinase buffer was added to a negative control well. The reaction solution was incubated at room temperature for 10 minutes. 2.5 μL of 2× substrate solution was added to the 384-well reaction plate. The 384-well plate was covered and incubated at 30° C. for 1 hour. ADP-Glo reagent (purchased from Promege, catalog number v9102) was equilibrated to room temperature. 5 μL of ADP-Glo reagent was transferred to the reaction well of the 384-well plate to stop the reaction.4. Detection of reaction results: 10 μL of kinase detection reagent was transferred to each well, shaken for 1 minute, and let stand at room temperature for 30 minutes. The sample luminescence value was read at Synegy. For orientation: In ADP-Glo the light output rises with the ADP produced.

Broadly, the IC50 is the concentration at which inhibition is half-maximal. For `CCOC(=O)c1cnc2ccc(/C=C\c3cccc(OC)n3)cn12`, the midpoint of inhibition, the IC50, lay at 56 nM. For the compound `CNC(=O)/C(=C/c1cccc(C)n1)c1ccc2ncc(C(N)=O)n2c1`, it took 207 nM to reach half-maximal inhibition (IC50). In the case of `Cc1cccc(/C=C\c2ccc3ncc(-c4nnn[nH]4)n3c2)n1` it was 21 nM; in that of `Cc1cccc(/C=C\c2ccc3ncc(C(=O)NCCN4CCOCC4)n3c2)n1`, 44 nM; in that of `Cc1csc(/C=C\c2ccc3ncc(C(N)=O)n3c2)n1`, 33 nM. Then `Cc1cccc(/C=C(/C(=O)N2CCCCC2)c2ccc3ncc(C#N)n3c2)n1`, with 4950 nM; and `Cc1cccc(/C=C\c2ccc3ncc(C#N)n3c2)n1`, with 25 nM. In the case of `Cc1ccc(F)c(/C=C\c2ccc3ncc(C(N)=O)n3c2)n1`, the IC50 was 8.5 nM. In the case of `Cc1cccc(/C=C(/C(N)=O)c2ccc3ncc(C(N)=O)n3c2)n1` it was 328 nM. In the case of `Cc1cccc(/C=C/c2ccc3ncc(C(N)=O)n3c2)n1` it was 372 nM. Then `Cc1cccc(/C=C(/C(=O)N2CCCCC2)c2ccc3ncc(C(N)=O)n3c2)n1`, with 58 nM. In turn, `COC(=O)/C(=C/c1cccc(C)n1)c1ccc2ncc(C(N)=O)n2c1` yielded an IC50 of 7.4 nM. Consider `COc1cccc(/C=C\c2ccc3ncc(C(N)=O)n3c2)n1`, for which the IC50 turned out to be 15 nM.
